Starred links: 1 amine or outer side, 2 acyl side, 3 side chain; linkers in the order of their positions; H or OH if unused. Non-standard residues stand in square brackets, D forms with d. Residues, ends and D or L forms follow the SMILES beside them. Groups on a side chain read outwards from the residue. *: point of attachment. γGlu = O=C(O)[C@H](CCC(=O)[*:2])N[*:1]; Palmitoyl = CCCCCCCCCCCCCCCC(=O)*; Aib = CC(C)(N)C(=O)O
How the values were obtained:
human CRF2α receptor = target: T1, human CRF2α receptor (Homo sapiens, UniProt Q13324); assay: cAMP agonism at human CRF2α receptor in TeloHEAC cells, FA modified peptides (Example 19.9); assay type: cell-based; conditions: 0% HSA, relative to urocortin 2
T1 construct: expressed in transfected cells; host or cells: TeloHEAC
T1 sequence (Q13324 1-411): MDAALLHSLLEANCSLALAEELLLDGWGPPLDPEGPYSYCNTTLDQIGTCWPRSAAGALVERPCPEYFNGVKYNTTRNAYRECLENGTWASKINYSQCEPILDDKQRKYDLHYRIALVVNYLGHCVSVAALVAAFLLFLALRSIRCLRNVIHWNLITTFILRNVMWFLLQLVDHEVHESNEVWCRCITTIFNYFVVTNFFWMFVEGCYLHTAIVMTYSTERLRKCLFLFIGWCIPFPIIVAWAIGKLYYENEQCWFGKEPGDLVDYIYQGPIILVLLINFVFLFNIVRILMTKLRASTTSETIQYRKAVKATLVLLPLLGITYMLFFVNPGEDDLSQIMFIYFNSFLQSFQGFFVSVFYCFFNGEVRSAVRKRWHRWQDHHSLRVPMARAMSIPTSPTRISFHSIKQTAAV
Procedure, shortened: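 Efficacy and EC50 are referenced to 100 nM urocortin 2 as 100%, with cAMP measured as the 665/620 nm HTRF ratio after 1 h at room temperature. Compounds (0.5 mM DMSO stock, 16 twofold dilutions) acted 30 min at 37 °C on CRF2α-expressing TeloHEAC cells, buffer containing IBMX and 0% or 0.2% HSA.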

CRF1R receptor = target: T2, CRF1R receptor (Homo sapiens, UniProt P34998); assay: cAMP activity at anti-target CRF1R, CHO-K1 cell line clone 2 (Example 19.10); assay type: cell-based; conditions: ratio of CRF1 EC50 to CRF2 EC50
T2 construct: host or cells: CHO-K1 clone 2
T2 sequence (P34998 24-415): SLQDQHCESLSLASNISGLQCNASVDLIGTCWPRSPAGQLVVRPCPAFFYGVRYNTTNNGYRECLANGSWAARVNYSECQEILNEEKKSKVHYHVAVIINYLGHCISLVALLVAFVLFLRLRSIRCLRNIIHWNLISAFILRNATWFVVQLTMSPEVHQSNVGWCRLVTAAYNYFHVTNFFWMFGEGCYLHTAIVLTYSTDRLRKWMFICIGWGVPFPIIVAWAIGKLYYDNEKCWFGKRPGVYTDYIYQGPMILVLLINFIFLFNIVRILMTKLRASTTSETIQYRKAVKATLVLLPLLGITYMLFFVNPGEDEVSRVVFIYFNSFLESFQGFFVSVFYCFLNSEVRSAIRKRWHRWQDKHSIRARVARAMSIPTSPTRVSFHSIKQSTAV
Procedure, shortened: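 The cAMP read-out used the same protocol as the previous assay, except that Sauvagine at 100 nM set the 100% activation control. Cells were CHO-K1 clone 2 overexpressing CRF1R, cultured in F12 medium with 10% FBS and G418 and stored frozen until use.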

SMILES: CCCCCCCCCCCCCCCC(=O)N[C@@H](CCC(=O)NCCCC[C@H](NC(=O)[C@H](CC(C)C)NC(=O)[C@H](CCCCN)NC(=O)[C@@H](NC(=O)[C@@H]1CCCN1C(=O)[C@H](NC(=O)[C@H](CC(=O)O)NC(=O)[C@H](CC(C)C)NC(=O)[C@H](CO)NC(=O)[C@H](CC(C)C)NC(=O)[C@@H](NC(=O)[C@@H](N)[C@@H](C)CC)C(C)C)C(C)C)[C@@H](C)CC)C(=O)N[C@@H](CCC(N)=O)C(=O)N[C@H](C(=O)N[C@@H](CC(C)C)C(=O)N[C@@H](CC(C)C)C(=O)N[C@@H](CCCCN)C(=O)N[C@@H](CCC(N)=O)C(=O)N[C@@H](CCC(=O)O)C(=O)N[C@@H](CCCNC(=N)N)C(=O)N[C@@H](CCC(N)=O)C(=O)N[C@@H](CCCCN)C(=O)NC(C)(C)C(=O)N[C@@H](CCC(N)=O)C(=O)N[C@@H](CCCNC(=N)N)C(=O)N[C@@H](CCC(N)=O)C(=O)N[C@@H](CCC(N)=O)C(=O)N[C@@H](C)C(=O)N[C@@H](CCC(=O)O)C(=O)N[C@@H](CCCCN)C(=O)N[C@@H](CC(N)=O)C(=O)N[C@@H](CCCCN)C(=O)N[C@@H](CCC(N)=O)C(=O)N[C@H](C(=O)N[C@@H](CC(C)C)C(=O)N[C@@H](C)C(=O)N[C@@H](CCC(N)=O)C(=O)N[C@H](C(N)=O)C(C)C)[C@@H](C)CC)[C@@H](C)CC)C(=O)O [compound 208] (H-IVLSLD[dV]PIKLK([γGlu-Palmitoyl])QILLKQERQK[Aib]QRQQAEKNKQILAQV-NH2; N-terminus assumed)
- EC50 (human CRF2α receptor): 0.9 nM
- CRF1/CRF2 ratio (CRF1R receptor): 2

SMILES: CCCCCCCCCCCCCCCC(=O)N[C@@H](CCC(=O)NCCCC[C@H](NC(=O)[C@H](CC(C)C)NC(=O)[C@H](CCCCN)NC(=O)[C@@H](NC(=O)[C@@H]1CCCN1C(=O)[C@H](NC(=O)[C@H](CC(=O)O)NC(=O)[C@H](CC(C)C)NC(=O)[C@H](CO)NC(=O)[C@H](CC(C)C)NC(=O)[C@@H](NC(=O)[C@@H](N)[C@@H](C)CC)C(C)C)C(C)C)[C@@H](C)CC)C(=O)N[C@@H](CCC(N)=O)C(=O)N[C@H](C(=O)N[C@@H](CC(C)C)C(=O)N[C@@H](CC(C)C)C(=O)N[C@@H](CCCCN)C(=O)N[C@@H](CCC(N)=O)C(=O)N[C@@H](CCC(=O)O)C(=O)N[C@@H](CCCNC(=N)N)C(=O)N[C@@H](CCC(N)=O)C(=O)N[C@@H](CCCCN)C(=O)N[C@@H](CCCCN)C(=O)NC(C)(C)C(=O)N[C@@H](CCCNC(=N)N)C(=O)N[C@@H](CCC(N)=O)C(=O)N[C@@H](CCCCN)C(=O)N[C@@H](C)C(=O)N[C@@H](CCC(=O)O)C(=O)N[C@@H](CCCCN)C(=O)N[C@@H](CC(N)=O)C(=O)N[C@@H](CCCCN)C(=O)N[C@@H](CCC(N)=O)C(=O)N[C@H](C(=O)N[C@@H](CC(C)C)C(=O)N[C@@H](C)C(=O)N[C@@H](CCC(N)=O)C(=O)N[C@H](C(N)=O)C(C)C)[C@@H](C)CC)[C@@H](C)CC)C(=O)O [compound 209] (H-IVLSLD[dV]PIKLK([γGlu-Palmitoyl])QILLKQERQKK[Aib]RQKAEKNKQILAQV-NH2; N-terminus assumed)
- EC50 (human CRF2α receptor): 8.62 nM
- CRF1/CRF2 ratio (CRF1R receptor): 3

SMILES: CCCCCCCCCCCCCCCC(=O)N[C@@H](CCC(=O)NCCCC[C@H](NC(=O)[C@H](CC(C)C)NC(=O)[C@H](CCCCN)NC(=O)[C@@H](NC(=O)[C@@H]1CCCN1C(=O)[C@H](NC(=O)[C@H](CC(=O)O)NC(=O)[C@H](CC(C)C)NC(=O)[C@H](CO)NC(=O)[C@H](CC(C)C)NC(=O)[C@@H](NC(=O)[C@@H](N)[C@@H](C)CC)C(C)C)C(C)C)[C@@H](C)CC)C(=O)N[C@@H](CCC(N)=O)C(=O)N[C@H](C(=O)N[C@@H](CC(C)C)C(=O)N[C@@H](CC(C)C)C(=O)N[C@@H](CCCCN)C(=O)N[C@@H](CCC(N)=O)C(=O)N[C@@H](CCC(=O)O)C(=O)N[C@@H](CCCNC(=N)N)C(=O)N[C@@H](CCC(N)=O)C(=O)N[C@@H](CCCCN)C(=O)N[C@@H](CCCCN)C(=O)N[C@@H](CCC(N)=O)C(=O)N[C@@H](CCCNC(=N)N)C(=O)N[C@@H](CCC(=O)O)C(=O)N[C@@H](CCC(N)=O)C(=O)N[C@@H](C)C(=O)N[C@@H](CCC(=O)O)C(=O)N[C@@H](CCCCN)C(=O)N[C@@H](CC(N)=O)C(=O)N[C@@H](CCCCN)C(=O)N[C@@H](CCC(N)=O)C(=O)N[C@H](C(=O)N[C@@H](CC(C)C)C(=O)N[C@@H](CCC(=O)O)C(=O)N[C@@H](CCC(N)=O)C(=O)N[C@H](C(N)=O)C(C)C)[C@@H](C)CC)[C@@H](C)CC)C(=O)O [compound 212] (H-IVLSLD[dV]PIKLK([γGlu-Palmitoyl])QILLKQERQKKQREQAEKNKQILEQV-NH2; N-terminus assumed)
- EC50 (human CRF2α receptor): 1.23 nM
- CRF1/CRF2 ratio (CRF1R receptor): 1

SMILES: CCCCCCCCCCCCCCCC(=O)N[C@@H](CCC(=O)NCCCC[C@H](NC(=O)[C@H](CC(C)C)NC(=O)[C@H](CCCCN)NC(=O)[C@@H](NC(=O)[C@@H]1CCCN1C(=O)[C@H](NC(=O)[C@H](CC(=O)O)NC(=O)[C@H](CC(C)C)NC(=O)[C@H](CO)NC(=O)[C@H](CC(C)C)NC(=O)[C@@H](NC(=O)[C@@H](N)[C@@H](C)CC)C(C)C)C(C)C)[C@@H](C)CC)C(=O)N[C@@H](CCC(N)=O)C(=O)N[C@H](C(=O)N[C@@H](CC(C)C)C(=O)N[C@@H](CC(C)C)C(=O)N[C@@H](CCCCN)C(=O)N[C@@H](CCC(N)=O)C(=O)N[C@@H](CCC(=O)O)C(=O)N[C@@H](CCCNC(=N)N)C(=O)N[C@@H](CCC(N)=O)C(=O)N[C@@H](CCCCN)C(=O)N[C@@H](CCCCN)C(=O)N[C@@H](CCC(N)=O)C(=O)N[C@@H](CCCNC(=N)N)C(=O)N[C@@H](CCC(N)=O)C(=O)N[C@@H](CCC(N)=O)C(=O)N[C@@H](C)C(=O)N[C@@H](CCC(=O)O)C(=O)N[C@@H](CCCCN)C(=O)N[C@@H](CC(N)=O)C(=O)N[C@@H](CCCCN)C(=O)N[C@@H](CCC(N)=O)C(=O)N[C@H](C(=O)N[C@@H](CC(C)C)C(=O)N[C@@H](C)C(=O)N[C@@H](CCC(N)=O)C(=O)N[C@H](C(N)=O)C(C)C)[C@@H](C)CC)[C@@H](C)CC)C(=O)O [compound 214] (H-IVLSLD[dV]PIKLK([γGlu-Palmitoyl])QILLKQERQKKQRQQAEKNKQILAQV-NH2; N-terminus assumed)
- EC50 (human CRF2α receptor): 4.15 nM
- CRF1/CRF2 ratio (CRF1R receptor): 1

SMILES: CCCCCCCCCCCCCCCC(=O)N[C@@H](CCC(=O)NCCCC[C@H](NC(=O)[C@H](CC(C)C)NC(=O)CNC(=O)[C@@H](NC(=O)[C@@H]1CCCN1C(=O)[C@H](NC(=O)[C@H](CC(=O)O)NC(=O)[C@H](CC(C)C)NC(=O)[C@H](CO)NC(=O)[C@H](CC(C)C)NC(=O)[C@@H](NC(=O)[C@@H](N)[C@@H](C)CC)C(C)C)C(C)C)[C@@H](C)CC)C(=O)N[C@@H](CCC(N)=O)C(=O)N[C@H](C(=O)N[C@@H](CC(C)C)C(=O)N[C@@H](CC(C)C)C(=O)N[C@@H](CCCCN)C(=O)N[C@@H](CCC(N)=O)C(=O)N[C@@H](CCC(=O)O)C(=O)N[C@@H](CCCNC(=N)N)C(=O)N[C@@H](CCC(N)=O)C(=O)N[C@@H](CCCCN)C(=O)N[C@@H](CCCCN)C(=O)NC(C)(C)C(=O)N[C@@H](CCCNC(=N)N)C(=O)N[C@@H](CCC(=O)O)C(=O)N[C@@H](CCC(N)=O)C(=O)N[C@@H](C)C(=O)N[C@@H](CCC(=O)O)C(=O)N[C@@H](CCCCN)C(=O)N[C@@H](CC(N)=O)C(=O)N[C@@H](CCCCN)C(=O)N[C@@H](CCCNC(=N)N)C(=O)N[C@H](C(=O)N[C@@H](CC(C)C)C(=O)N[C@@H](CCC(=O)O)C(=O)N[C@@H](CCCNC(=N)N)C(=O)N[C@H](C(N)=O)C(C)C)[C@@H](C)CC)[C@@H](C)CC)C(=O)O [compound 218] (H-IVLSLD[dV]PIGLK([γGlu-Palmitoyl])QILLKQERQKK[Aib]REQAEKNKRILERV-NH2)
- EC50 (human CRF2α receptor): 1.58 nM
- CRF1/CRF2 ratio (CRF1R receptor): 4
